Data taken from patent US20090004171A1, “COMPOUND PROFILING METHOD” (CYTOPATHFINDER, INC., priority 2007, published 2009).

Columns and labels:
MCF7 = MCF7 breast cancer cells; cited from earlier work
SK-BR-3 = SK-BR-3 breast cancer cell; stated as known; cited from earlier work
T-47D cell = details: T-47D human derived breast cancer cell, compared with SK-BR-3; cited from earlier work
SHSY5Y cell = assay: Exposure of SHSY5Y neuroblastoma cells to differentiation stimulants (neuron projection extension, marker enzyme expression); type: cell-based; details: human neuroblastoma
Text: The functions of (1) and (2) are different, but share the same properties in terms of extension of neuron projection. Therefore, cellular components necessary for these two intracellular alteration were specified experimentally by means of RNA interference method. As such, it was obtained that the component collection (3) necessary for the alteration from SHSY5Y to (1) are {JAK1, JAK3, ROR, and RET}. On the other hand, the component collection (4) necessary for the alteration from SHSY5Y cells to (2), are {NTRK1, EPHB2, INSR, RDGFRA, ROR and RET}. When comparing and calculation of intersection is done for (3) and (4), the intersection (5) was obtained to read {ROR and RET}. Next, the collection (6) {JAK1 and JAK3} by subtraction of (3)−(5) and the collection (5) were analyzed in terms of an intermolecular interaction, and the existence of a pathway of a molecular signals from (6) to (5) (FIG. 3A) was determined. Furthermore, the collection (7) which was obtained by the subtraction of (4)−(5), and the collection (5) were analyzed in terms of an intermolecular interaction, and the existence of a pathway of molecular signals from (7) to (5) (FIG. 3B) was further determined. The common components and pathway relating to the projection extension by retinoic acid (RA) and Nerve Growth Factor (NGF) are shown in FIG. 4.

| Compound | DXR sensitivity / resistance (MCF7) | effect on cell growth (SK-BR-3) | DXR sensitivity (T-47D cell) | expression of tyrosine hydroxylase (SHSY5Y cell) | extension of neuron projection (SHSY5Y cell) |
| --- | --- | --- | --- | --- | --- |
| COc1cccc2c1C(=O)c1c(O)c3c(c(O)c1C2=O)C[C@@](O)(C(=O)CO)C[C@@H]3O[C@H]1C[C@H](N)[C@H](O)[C@H](C)O1 [doxorubicin] | DXR resistance | growth inhibition | same DXR sensitivity as the SK-BR-3 | – | – |
| Nerve Growth Factor: Nerve Growth Factor, stimulant triggering neurite outgrowth of SHSY5Y cells | – | – | – | tyrosine hydroxylase was expressed | caused extension of neuron projection |
